What was measured:
[1] = tested on: human skin; assay: Oral bimatoprost tablets in a patient, skin color; assay type: in vivo; conditions: oral tablet, 2 x 100 mg per dose, 3 doses per day, four months
From the text: A patient began taking bimatoprost as a tablet.

[2] = tested on: eyelashes; conditions: Lumigan ophthalmic solution, applied in the FDA approved manner; cited from earlier work

Substance: cyclopentane N-ethyl heptanamide-5-cis-2-(3α-hydroxy-5-phenyl-1-trans-pentenyl)-3,5-dihydroxy, [bimatoprost, cyclopentane N-ethyl heptanamide-5-cis-2-(3α-hydroxy-5-phenyl-1-trans-pentenyl)-3,5-dihydroxy, [1α,2β,3α,5α]]
- skin color after treatment [1]: turned to a dark brown color
- growth of eyelashes [2]: effective to increase the growth of eyelashes

— patent publication US7070768B2, “Method for imparting artificial tan to human skin” (Allergan, Inc., priority 2003, dated 2006)
